Source: patent US8901313B2, “6,5-heterocyclic propargylic alcohol compounds and uses therefor” (Genentech, Inc., priority 2011, dated 2014)

molecular target: T1, nuclear factor-kappa B (NF-kB)-inducing kinase (NIK) (Homo sapiens, UniProt Q99558); assay: NIK Enzyme Inhibition Assay (Transcreener ADP assay); assay type: biochemical; settings: purified NIK 0.2-1 nM, 10 uM ATP, fluorescence polarization, Morrison's quadratic equation; read-out: inhibitory value (Ki) for NIK
T1 construct: made in house; host or cells: baculovirus-infected insect cells
T1 sequence (Q99558 whole entry): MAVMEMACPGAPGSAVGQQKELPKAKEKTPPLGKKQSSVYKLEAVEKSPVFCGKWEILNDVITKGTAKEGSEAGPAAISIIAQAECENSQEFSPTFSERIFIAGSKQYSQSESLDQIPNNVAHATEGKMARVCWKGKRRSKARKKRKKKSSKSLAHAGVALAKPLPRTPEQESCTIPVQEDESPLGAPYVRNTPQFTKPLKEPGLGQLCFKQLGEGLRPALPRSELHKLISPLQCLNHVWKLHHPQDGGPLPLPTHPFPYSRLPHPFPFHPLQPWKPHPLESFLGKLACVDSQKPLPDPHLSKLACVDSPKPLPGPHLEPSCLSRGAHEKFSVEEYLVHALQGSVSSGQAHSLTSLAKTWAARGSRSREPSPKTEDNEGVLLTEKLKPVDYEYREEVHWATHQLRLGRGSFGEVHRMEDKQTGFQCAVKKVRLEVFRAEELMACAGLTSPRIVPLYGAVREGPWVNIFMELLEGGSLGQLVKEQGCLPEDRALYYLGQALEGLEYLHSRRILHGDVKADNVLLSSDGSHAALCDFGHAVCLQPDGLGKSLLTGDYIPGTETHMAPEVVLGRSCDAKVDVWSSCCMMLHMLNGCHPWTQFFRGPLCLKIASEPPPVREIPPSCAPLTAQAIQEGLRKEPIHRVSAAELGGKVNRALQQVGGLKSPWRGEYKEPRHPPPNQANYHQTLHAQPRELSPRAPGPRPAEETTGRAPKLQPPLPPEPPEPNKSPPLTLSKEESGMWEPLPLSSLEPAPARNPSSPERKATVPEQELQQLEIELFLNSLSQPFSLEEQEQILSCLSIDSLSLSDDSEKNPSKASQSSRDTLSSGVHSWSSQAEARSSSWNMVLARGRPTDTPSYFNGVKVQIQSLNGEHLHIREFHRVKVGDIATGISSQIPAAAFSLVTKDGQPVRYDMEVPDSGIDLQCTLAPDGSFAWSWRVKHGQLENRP

For `Cc1nc([C@](C)(O)C#Cc2ccc3c(CO)nn(-c4ccnc(N)n4)c3c2)no1` [Example T1.1-40, (2R)-4-[1-(2-aminopyrimidin-4-yl)-3-(hydroxymethyl)indazol-6-yl]-2-(5-methyl-1,2,4-oxadiazol-3-yl)but-3-yn-2-ol], which Ki is on record?
The Ki was 2 nM.

With `Nc1nccc(-n2nc(C(=O)N3CCOCC3)c3ccc(C#CC4(O)CCn5ccnc54)cc32)n1` (stereo not drawn) [Example T1.1-41, [1-(2-aminopyrimidin-4-yl)-6-[2-(7-hydroxy-5,6-dihydropyrrolo[1,2-a]imidazol-7-yl)ethynyl]indazol-3-yl]-morpholino-methanone] as the compound, how does the Ki read?
The Ki was 2 nM.

`Cc1cc(C(C)(O)C#Cc2ccc3nc(OC4CCOCC4)n(-c4ccnc(N)n4)c3c2)no1` (stereo not drawn) [Example T1.1-42, 4-[3-(2-aminopyrimidin-4-yl)-2-tetrahydropyran-4-yloxy-benzimidazol-5-yl]-2-(5-methylisoxazol-3-yl)but-3-yn-2-ol] was tested. Which Ki did it give?
The Ki was 3 nM.

How did the Ki turn out when `CC(O)(C#Cc1ccc2c(CN3CC(F)(F)C3)nn(-c3ccnc(N)n3)c2c1)c1ncccn1` (stereo not drawn) [Example T1.1-43, 4-[1-(2-aminopyrimidin-4-yl)-3-[(3,3-difluoroazetidin-1-yl)methyl]indazol-6-yl]-2-pyrimidin-2-yl-but-3-yn-2-ol] was run?
Its Ki is 3 nM.

How did the Ki turn out when `COCCOc1nc2ccc(C#C[C@@](C)(O)c3cc(C)on3)cc2n1-c1ccnc(N)n1` [Example T1.1-44, (2R)-4-[3-(2-aminopyrimidin-4-yl)-2-(2-methoxyethoxy)benzimidazol-5-yl]-2-(5-methylisoxazol-3-yl)but-3-yn-2-ol] was run?
Its Ki is 3 nM.

With `Cc1nn(-c2ccnc(N)n2)c2cc(C#CC(C)(O)c3nc[nH]n3)ccc12` (stereo not drawn) [Example T1.1-45, 4-[1-(2-aminopyrimidin-4-yl)-3-methyl-indazol-6-yl]-2-(1H-1,2,4-triazol-3-yl)but-3-yn-2-ol] as the compound, how does the Ki read?
Its Ki is 3 nM.

With `CC(O)(C#Cc1ccc2nc(OCC(F)(F)F)n(-c3ccnc(N)n3)c2c1)c1ncccn1` (stereo not drawn) [Example T1.1-46, 4-[3-(2-aminopyrimidin-4-yl)-2-(2,2,2-trifluoroethoxy)benzimidazol-5-yl]-2-pyrimidin-2-yl-but-3-yn-2-ol] as the compound, how does the Ki read?
The Ki was 3 nM.

Which Ki does the source give for `Cc1nc([C@](C)(O)C#Cc2ccc3nc(OC4COC4)n(-c4ccnc(N)n4)c3c2)no1` [Example T1.1-47, (2R)-4-[3-(2-aminopyrimidin-4-yl)-2-(oxetan-3-yloxy)benzimidazol-5-yl]-2-(5-methyl-1,2,4-oxadiazol-3-yl)but-3-yn-2-ol] here?
The Ki was 3 nM.

For `CCOc1nc2ccc(C#CC(C)(O)c3ncccn3)cc2n1-c1ccnc(N)n1` (stereo not drawn) [Example T1.1-48, 4-[3-(2-aminopyrimidin-4-yl)-2-ethoxy-benzimidazol-5-yl]-2-pyrimidin-2-yl-but-3-yn-2-ol], which Ki is on record?
Its Ki is 3 nM.

`CC(O)(C#Cc1ccc2c(CF)nn(-c3ccnc(N)n3)c2c1)c1ncccn1` (stereo not drawn) [Example T1.1-49, 4-[1-(2-aminopyrimidin-4-yl)-3-(fluoromethyl)indazol-6-yl]-2-pyrimidin-2-yl-but-3-yn-2-ol] was tested. Which Ki did it give?
The Ki was 4 nM.

For `Cc1nc([C@](C)(O)C#Cc2ccc3c(C(C)(C)O)nn(-c4nc(N)ncc4Cl)c3c2)no1` [Example T1.1-50, (2R)-4-[1-(2-amino-5-chloro-pyrimidin-4-yl)-3-(1-hydroxy-1-methyl-ethyl)indazol-6-yl]-2-(5-methyl-1,2,4-oxadiazol-3-yl) but-3-yn-2-ol], which Ki is on record?
Its Ki is 4 nM.

With `COCCOc1nc2ccc(C#C[C@@](C)(O)c3noc(C)n3)cc2n1-c1ccnc(N)n1` [Example T1.1-51, (2R)-4-[3-(2-aminopyrimidin-4-yl)-2-(2-methoxyethoxy)benzimidazol-5-yl]-2-(5-methyl-1,2,4-oxadiazol-3-yl)but-3-yn-2-ol] as the compound, how does the Ki read?
Its Ki is 4 nM.

Which Ki does the source give for `Cc1nn(-c2ccnc(N)n2)c2cc(C#CC(C)(O)CF)ccc12` (stereo not drawn) [Example T1.1-52, 4-[1-(2-aminopyrimidin-4-yl)-3-methyl-indazol-6-yl]-1-fluoro-2-methyl-but-3-yn-2-ol] here?
Its Ki is 4 nM.

Which Ki does the source give for `CC(O)(C#Cc1ccc2c(C(=O)N3CCOCC3)nn(-c3ccnc(N)n3)c2c1)c1ncccn1` (stereo not drawn) [Example T1.1-54, [1-(2-aminopyrimidin-4-yl)-6-(3-hydroxy-3-pyrimidin-2-yl-but-1-ynyl)indazol-3-yl]-morpholino-methanone] here?
Its Ki is 4 nM.

For `CC(=O)N1CC(Oc2nc3ccc(C#CC(C)(O)c4cc(C)on4)cc3n2-c2ccnc(N)n2)C1` (stereo not drawn) [Example T1.1-55, 1-[3-[1-(2-aminopyrimidin-4-yl)-6-[3-hydroxy-3-(5-methylisoxazol-3-yl)but-1-ynyl]benzimidazol-2-yl]oxyazetidin-1-yl]ethanone], which Ki is on record?
The Ki was 4 nM.

Which Ki does the source give for `CC(C)(O)c1nn(-c2ccnc(N)n2)c2cc(C#CC(C)(O)c3ccccn3)ccc12` (stereo not drawn) [Example T1.1-56, 4-[1-(2-aminopyrimidin-4-yl)-3-(1-hydroxy-1-methyl-ethyl)indazol-6-yl]-2-(2-pyridyl)but-3-yn-2-ol] here?
The Ki was 4 nM.

For `CC(C)(O)c1nn(-c2ccnc(N)n2)c2cc(C#CC(C)(O)c3ncccn3)ccc12` (stereo not drawn) [Example T1.1-57, 4-[1-(2-aminopyrimidin-4-yl)-3-(1-hydroxy-1-methyl-ethyl)indazol-6-yl]-2-pyrimidin-2-yl-but-3-yn-2-ol], which Ki is on record?
The Ki was 5 nM.

For `COCCOc1nc2ccc(C#CC(C)(O)c3ncccn3)cc2n1-c1ccnc(N)n1` (stereo not drawn) [Example T1.1-58, 4-[3-(2-aminopyrimidin-4-yl)-2-(2-methoxyethoxy)benzimidazol-5-yl]-2-pyrimidin-2-yl-but-3-yn-2-ol], which Ki is on record?
The Ki was 5 nM.

How did the Ki turn out when `Cc1cc(C(C)(O)C#Cc2ccc3c(C(O)(C4CCOCC4)C4CC4)nn(-c4ccnc(N)n4)c3c2)no1` (stereo not drawn) [Example T1.1-59, 4-[1-(2-aminopyrimidin-4-yl)-3-(cyclopropyl-hydroxy-tetrahydropyran-4-yl-methyl)indazol-6-yl]-2-(5-methyl-isoxazol-3-yl)but-3-yn-2-ol] was run?
The Ki was 5 nM.

With `CC(O)(C#Cc1ccc2nc(OCCO)n(-c3ccnc(N)n3)c2c1)c1ncccn1` (stereo not drawn) [Example T1.1-60, 4-[3-(2-aminopyrimidin-4-yl)-2-(2-hydroxyethoxy)benzimidazol-5-yl]-2-pyrimidin-2-yl-but-3-yn-2-ol] as the compound, how does the Ki read?
The Ki was 6 nM.

`CC(O)(C#Cc1ccc2c(CO)nn(-c3ccnc(N)n3)c2c1)c1ncccn1` (stereo not drawn) [Example T1.1-61, 4-[1-(2-aminopyrimidin-4-yl)-3-(hydroxymethyl)indazol-6-yl]-2-pyrimidin-2-yl-but-3-yn-2-ol] was tested. Which Ki did it give?
The Ki was 6 nM.

For `Cc1nc2ccc(C#CC(C)(O)c3ncccn3)cc2n1-c1ncnc(N)n1` (stereo not drawn) [Example T1.1-62, 4-[3-(4-amino-1,3,5-triazin-2-yl)-2-methyl-benzimidazol-5-yl]-2-pyrimidin-2-yl-but-3-yn-2-ol], which Ki is on record?
The Ki was 6 nM.

How did the Ki turn out when `CC(O)(C#Cc1ccc2c(C(=O)N3CC4(COC4)C3)nn(-c3ccnc(N)n3)c2c1)c1ncccn1` (stereo not drawn) [Example T1.1-63, [1-(2-aminopyrimidin-4-yl)-6-(3-hydroxy-3-pyrimidin-2-yl-but-1-ynyl)indazol-3-yl]-(2-oxa-6-azaspiro[3.3]heptan-6-yl)methanone] was run?
Its Ki is 6 nM.

Which Ki does the source give for `CN(C)C(=O)c1nn(-c2ccnc(N)n2)c2cc(C#CC(C)(O)c3ncccn3)ccc12` (stereo not drawn) [Example T1.1-64, 1-(2-aminopyrimidin-4-yl)-6-(3-hydroxy-3-pyrimidin-2-yl-but-1-ynyl)-N,N-dimethyl-indazole-3-carboxamide] here?
Its Ki is 6 nM.

For `Cc1nc([C@](C)(O)C#Cc2ccc3c(CN4CC(F)(F)C4)nn(-c4ccnc(N)n4)c3c2)no1` [Example T1.1-65, (2R)-4-[1-(2-aminopyrimidin-4-yl)-3-[(3,3-difluoroazetidin-1-yl)methyl]indazol-6-yl]-2-(5-methyl-1,2,4-oxadiazol-3-yl)but-3-yn-2-ol], which Ki is on record?
The Ki was 7 nM.

For `CC(O)(C#Cc1ccc2c(C(=O)N3CC4CC3CO4)nn(-c3ccnc(N)n3)c2c1)c1ncccn1` (stereo not drawn) [Example T1.1-66, [1-(2-aminopyrimidin-4-yl)-6-(3-hydroxy-3-pyrimidin-2-yl-but-1-ynyl)indazol-3-yl]-(2-oxa-5-azabicyclo[2.2.1]heptan-5-yl)methanone], which Ki is on record?
The Ki was 7 nM.

Which Ki does the source give for `CC(C)(O)c1nn(-c2ccnc(N)n2)c2cc(C#CC3(O)CCc4cccnc43)ccc12` (stereo not drawn) [Example T1.1-67, 7-[2-[1-(2-aminopyrimidin-4-yl)-3-(1-hydroxy-1-methyl-ethyl)indazol-6-yl]ethynyl]-5,6-dihydrocyclopenta[b] pyridin-7-ol] here?
Its Ki is 8 nM.

`Cc1nc([C@](C)(O)C#Cc2ccc3c(C(=O)N4CCC(F)CC4)nn(-c4nc(N)ncc4Cl)c3c2)no1` [Example T1.1-68, [1-(2-amino-5-chloro-pyrimidin-4-yl)-6-[(3R)-3-hydroxy-3-(5-methyl-1,2,4-oxadiazol-3-yl)but-1-ynyl]indazol-3-yl]-(4-fluoro-1-piperidyl)methanone] was tested. Which Ki did it give?
Its Ki is 9 nM.

With `CC1CN(C(=O)c2nn(-c3ccnc(N)n3)c3cc(C#CC(C)(O)c4ncccn4)ccc23)CC(C)O1` (stereo not drawn) [Example T1.1-69, [1-(2-aminopyrimidin-4-yl)-6-(3-hydroxy-3-pyrimidin-2-yl-but-1-ynyl)indazol-3-yl]-(2,6-dimethylmorpholin-4-yl) methanone] as the compound, how does the Ki read?
The Ki was 9 nM.

`Cc1cc(C(C)(O)C#Cc2ccc3nc(OCC4COC(C)(C)O4)n(-c4ccnc(N)n4)c3c2)no1` (stereo not drawn) [Example T1.1-70, 4-[3-(2-aminopyrimidin-4-yl)-2-[(2,2-dimethyl-1,3-dioxolan-4-yl)methoxy]benzimidazol-5-yl]-2-(5-methylisoxazol-3-yl)but-3-yn-2-ol] was tested. Which Ki did it give?
The Ki was 9 nM.

How did the Ki turn out when `Cc1nc([C@](C)(O)C#Cc2ccc3c(C(=O)N4CCCCC4)nn(-c4nc(N)ncc4Cl)c3c2)no1` [Example T1.1-71, [1-(2-amino-5-chloro-pyrimidin-4-yl)-6-[(3R)-3-hydroxy-3-(5-methyl-1,2,4-oxadiazol-3-yl)but-1-ynyl]indazol-3-yl]-(1-piperidyl)methanone] was run?
The Ki was 10 nM.

`CC(O)(C#Cc1ccc2nc(OC3COC3)n(-c3ccnc(N)n3)c2c1)c1ncccn1` (stereo not drawn) [Example T1.1-72, 4-[3-(2-aminopyrimidin-4-yl)-2-(oxetan-3-yloxy)benzimidazol-5-yl]-2-pyrimidin-2-yl-but-3-yn-2-ol] was tested. Which Ki did it give?
The Ki was 12 nM.

`Cc1nn(-c2ccnc(N)n2)c2cc(C#CC(C)(O)c3cc[nH]n3)ccc12` (stereo not drawn) [Example T1.1-73, 4-[1-(2-aminopyrimidin-4-yl)-3-methyl-indazol-6-yl]-2-(1H-pyrazol-3-yl)but-3-yn-2-ol] was tested. Which Ki did it give?
Its Ki is 12 nM.
